Test results reported in the NIST ThermoML archive (doi:10.1016/j.jct.2015.08.039).
Numbers after ± are expanded uncertainties.

Assay: wn = mass fraction of the nth substance listed
Details: 298.2 K, Pendant drop shape

With CCCC[N+](CCCC)(CCCC)CCCC.[Br-] [tetrabutylammonium bromide] + O the surface tension liquid-gas (w1 = 0.0697) was 53.82 ± 1.4 mN/m, the surface tension liquid-gas (w1 = 0.1) was 50.58 ± 1.3 mN/m and the surface tension liquid-gas (w1 = 0.14) was 49.72 ± 1.2 mN/m. For the same compound, the surface tension liquid-gas (w1 = 0.3) was 46.19 ± 1.1 mN/m and the surface tension liquid-gas (w1 = 0.4) was 44.48 ± 1.2 mN/m.
